Reference: US11299467B2 (Antabio SAS, priority 2017, dated 2022)
Like-named read-outs stand apart in the source and are kept apart here.

What was measured:
Type in all cases: biochemical
VIM-1 = VIM-1 (Pseudomonas aeruginosa, UniProt A0A0F7KYQ8); experiment: In vitro enzyme inhibition assay, purified VIM-1 (imipenem hydrolysis, UV 299 nm)
Experimental: (§1) Enzyme inhibition assays were performed using purified MBL enzymes (NDM-1; VIM-1; VIM-2; IMP-1) in 10 mM HEPES buffer pH 7.5 in 96-well microtiter plates. Imipenem (300 μM) was used as substrate and its hydrolysis was followed at UV 299 nm during 10 mn every 30 seconds using a Perkin Elmer Envision UV fluorescence plate reader.
(§2) Mean Ki values from multiple experiments are presented below.
(§3) Studies were undertaken to compare the compounds of the invention with structurally similar compounds (“Comp. x”). Experiments were conducted as described above.

VIM-2 = VIM-2 (Escherichia coli, UniProt Q5U7L7); experiment: In vitro enzyme inhibition assay, purified VIM-2 (imipenem hydrolysis, UV 299 nm)
Experimental: as §1, §2, §3

NDM-1 = NDM-1 (Klebsiella pneumoniae, UniProt C7C422); experiment: In vitro enzyme inhibition assay, purified NDM-1 (imipenem hydrolysis, UV 299 nm)
Experimental: as §1, §2, §3

IMP-1 = IMP-1 (Serratia marcescens, UniProt P52699); experiment: In vitro enzyme inhibition assay, purified IMP-1 (imipenem hydrolysis, UV 299 nm)
Experimental: as §1, §2, §3

[1] = mean Ki from multiple experiments, imipenem 300 μM, Cheng-Prusoff from IC50, read-out: Ki VIM-1
[2] = mean Ki from multiple experiments, imipenem 300 μM, Cheng-Prusoff from IC50, read-out: Ki VIM-2
[3] = mean Ki from multiple experiments, imipenem 300 μM, Cheng-Prusoff from IC50, read-out: Ki NDM-1
[4] = mean Ki from multiple experiments, imipenem 300 μM, Cheng-Prusoff from IC50, read-out: Ki IMP-1
[5] = comparative study bands, read-out: Ki VIM-1 (comparative study)
[6] = comparative study bands, read-out: Ki VIM-2 (comparative study)
[7] = comparative study bands, read-out: Ki NDM-1 (comparative study)
[8] = comparative study bands, read-out: Ki IMP-1 (comparative study)

Sequence of NDM-1 (C7C422 29-270, looked up): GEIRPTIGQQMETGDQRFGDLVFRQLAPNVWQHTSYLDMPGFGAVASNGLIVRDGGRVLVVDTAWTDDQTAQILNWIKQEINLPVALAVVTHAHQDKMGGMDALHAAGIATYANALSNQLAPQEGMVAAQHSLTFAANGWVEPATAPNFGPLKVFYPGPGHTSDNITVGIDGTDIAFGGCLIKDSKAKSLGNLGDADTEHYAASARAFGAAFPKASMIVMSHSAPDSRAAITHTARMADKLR
Sequence of IMP-1 (P52699 19-246, looked up, species assumed): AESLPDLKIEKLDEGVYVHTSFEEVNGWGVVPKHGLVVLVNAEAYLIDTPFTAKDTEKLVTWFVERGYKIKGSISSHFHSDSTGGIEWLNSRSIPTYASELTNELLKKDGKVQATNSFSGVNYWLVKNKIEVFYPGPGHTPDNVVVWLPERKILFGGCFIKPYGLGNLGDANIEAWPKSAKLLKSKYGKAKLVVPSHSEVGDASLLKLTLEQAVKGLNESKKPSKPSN

## N=C(N)Nc1ccc(S(=O)(=O)Nc2scnc2C(=O)O)cc1 [Example 44, 5-[(4-guanidinophenyl)sulfonylamino]thiazole-4-carboxylic acid]
VIM-1; [1]
  Ki: 200 to 500 nM
VIM-2; [2]
  Ki: 50 to 150 nM
NDM-1; [3]
  Ki: 200 to 2000 nM
IMP-1; [4]
  Ki: 1000 to 10000 nM

## N=C(N)NCC(=O)Nc1ncc(S(=O)(=O)Nc2scnc2C(=O)O)s1 [Example 23, 5-[[2-[(2-guanidinoacetyl)amino]thiazol-5-yl]sulfonylamino]thiazole-4-carboxylic acid]
VIM-1; [1]
  Ki: < 200 nM
VIM-2; [2]
  Ki: 20 to 50 nM
NDM-1; [3]
  Ki: < 50 nM
IMP-1; [4]
  Ki: 1000 to 10000 nM

## N=C(N)NCCOC(=O)Nc1ccc(S(=O)(=O)Nc2scnc2C(=O)O)cc1F [Example 27, 5-[[3-fluoro-4-(2-guanidinoethoxycarbonylamino)phenyl]sulfonylamino]thiazole-4-carboxylic acid]
VIM-1; [1]
  Ki: < 200 nM
VIM-2; [2]
  Ki: < 20 nM
NDM-1; [3]
  Ki: < 50 nM
IMP-1; [4]
  Ki: 500 to 1000 nM

## O=C(CC1=NCCN1)Nc1ccc(S(=O)(=O)Nc2scnc2C(=O)O)cc1F [Example 21, 5-[[4-[[2-(4,5-dihydro-1H-imidazol-2-yl)acetyl]amino]-3-fluoro-phenyl]sulfonylamino]thiazole-4-carboxylic acid]
VIM-1; [1]
  Ki: 200 to 500 nM
NDM-1; [3]
  Ki: < 50 nM
IMP-1; [4]
  Ki: 500 to 1000 nM

## N#Cc1cc(S(=O)(=O)Nc2scnc2C(=O)O)ccc1NC(=O)CNC(=N)N [Example 5, 5-[[3-cyano-4-[(2-guanidinoacetyl)amino]phenyl]sulfonylamino]thiazole-4-carboxylic acid]
VIM-1; [5]
  Ki: 150 to 300 nM
VIM-1; [1]
  Ki: < 200 nM
VIM-2; [6]
  Ki: 20 to 50 nM
VIM-2; [2]
  Ki: 20 to 50 nM
NDM-1; [7]
  Ki: 30 to 100 nM
NDM-1; [3]
  Ki: 50 to 200 nM
IMP-1; [8]
  Ki: 150 to 600 nM
IMP-1; [4]
  Ki: < 500 nM

## N#Cc1cc(S(=O)(=O)Nc2scnc2C(=O)O)ccc1NC(=O)CN [Comp. D, reference compound]
VIM-1; [5]
  Ki: 500 to 1000 nM
VIM-2; [6]
  Ki: 20 to 50 nM
NDM-1; [7]
  Ki: 30 to 100 nM
IMP-1; [8]
  Ki: 150 to 600 nM

## N=C(N)NC(=O)Nc1ccc(S(=O)(=O)Nc2scnc2C(=O)O)cc1F [Example 28, 5-[[4-(carbamimidoylcarbamoyl-amino)-3-fluoro-phenyl]sulfonylamino] thiazole-4-carboxylic acid]
VIM-1; [1]
  Ki: < 200 nM
VIM-2; [2]
  Ki: < 20 nM
NDM-1; [3]
  Ki: 50 to 200 nM
IMP-1; [4]
  Ki: < 500 nM

## N=C(N)N/N=C/C(=O)Nc1ccc(S(=O)(=O)Nc2scnc2C(=O)O)cc1F [Example 43, 5-[[4-[[(2E)-2-(carbamimidoylhydrazono)acetyl]amino]-3-fluoro-phenyl]sulfonylamino]thiazole-4-carboxylic acid]
VIM-1; [1]
  Ki: 200 to 500 nM
NDM-1; [3]
  Ki: 50 to 200 nM
IMP-1; [4]
  Ki: < 500 nM

## N=C(N)NCC(=O)Nc1ccc(S(=O)(=O)Nc2scnc2C(=O)O)cc1C(N)=O [Example 6, 5-[[3-carbamoyl-4-[(2-guanidinoacetyl)amino]phenyl]sulfonylamino]thiazole-4-carboxylic acid]
VIM-1; [1]
  Ki: 200 to 500 nM
NDM-1; [3]
  Ki: 200 to 2000 nM
IMP-1; [4]
  Ki: 1000 to 10000 nM

## N=C(N)NCCC(=O)Nc1ccc(S(=O)(=O)Nc2scnc2C(=O)O)cc1F [Example 19, 5-[[3-fluoro-4-(3-guanidinopropanoylamino)phenyl]sulfon-ylamino]thiazole-4-carboxylic acid]
VIM-1; [1]
  Ki: 200 to 500 nM
VIM-2; [2]
  Ki: 20 to 50 nM
NDM-1; [3]
  Ki: 50 to 200 nM
IMP-1; [4]
  Ki: 1000 to 10000 nM

## N=C(N)NNCC(=O)Nc1ccc(S(=O)(=O)Nc2scnc2C(=O)O)cc1F [Example 41, 5-[[4-[[2-(2-carbamimidoylhydrazino)acetyl]amino]-3-fluoro-phenyl]sulfonylamino]thiazole-4-carboxylic acid]
VIM-1; [1]
  Ki: 200 to 500 nM
VIM-2; [2]
  Ki: 20 to 50 nM
NDM-1; [3]
  Ki: < 50 nM
IMP-1; [4]
  Ki: 500 to 1000 nM

## N=C(N)NCC(=O)NCc1ccc(S(=O)(=O)Nc2scnc2C(=O)O)cc1F [Example 45, 5-[[3-fluoro-4-[[(2-guanidinoacetyl)amino]methyl]phenyl]sulfonylamino]thiazole-4-carboxylic acid]
VIM-1; [1]
  Ki: 500 to 1000 nM
VIM-2; [2]
  Ki: 50 to 150 nM
NDM-1; [3]
  Ki: 200 to 2000 nM
IMP-1; [4]
  Ki: 1000 to 10000 nM

## N=C(N)NCC(=O)Nc1ccc(S(=O)(=O)Nc2scnc2C(=O)O)cc1OC(F)(F)F [Example 18, 5-[[4-[(2-guanidinoacetyl)amino]-3-(trifluoromethoxy)phenyl]sulfonylamino] thiazole-4-carboxylic acid]
VIM-1; [5]
  Ki: < 150 nM
VIM-1; [1]
  Ki: < 200 nM
VIM-2; [6]
  Ki: < 20 nM
VIM-2; [2]
  Ki: < 20 nM
NDM-1; [7]
  Ki: 30 to 100 nM
NDM-1; [3]
  Ki: 50 to 200 nM
IMP-1; [8]
  Ki: < 150 nM
IMP-1; [4]
  Ki: < 500 nM

## N=C(N)NCC(=O)Nc1cc(F)c(S(=O)(=O)Nc2scnc2C(=O)O)cc1F [Example 9, 5-[[2,5-difluoro-4-[(2-guanidinoacetyl)amino]phenyl]sulfonylamino]thiazole-4-carboxylic acid]
VIM-1; [1]
  Ki: 200 to 500 nM
VIM-2; [2]
  Ki: < 20 nM
NDM-1; [3]
  Ki: 50 to 200 nM
IMP-1; [4]
  Ki: 1000 to 10000 nM

## CN(CC(=O)Nc1ccc(S(=O)(=O)Nc2scnc2C(=O)O)cc1F)C(=N)N [Example 8, 5-[[4-[[2-[carbamimidoyl(methyl)amino]acetyl]amino]-3-fluoro-phenyl]sulfonylamino]thiazole-4-carboxylic acid]
VIM-1; [1]
  Ki: 200 to 500 nM
NDM-1; [3]
  Ki: 50 to 200 nM
IMP-1; [4]
  Ki: 1000 to 10000 nM

## N#Cc1cc(S(=O)(=O)Nc2scnc2C(=O)O)ccc1NC(=O)CN [Comp. F, reference compound]
VIM-1; [5]
  Ki: 150 to 300 nM

## C[C@@H](NC(=N)N)C(=O)Nc1ccc(S(=O)(=O)Nc2scnc2C(=O)O)cc1 [Example 11, 5-[[4-[[(2R)-2-guanidinopropanoyl]amino]phenyl]sulfonylamino]thiazole-4-carboxylic acid]
VIM-1; [1]
  Ki: 200 to 500 nM
NDM-1; [3]
  Ki: 200 to 2000 nM
IMP-1; [4]
  Ki: 1000 to 10000 nM

## N=C(N)NNC(=O)Cc1ccc(S(=O)(=O)Nc2scnc2C(=O)O)cc1F [Example 24, 5-[[4-[2-(2-carbamimidoylhydrazino)-2-oxo-ethyl]-3-fluoro-phenyl]sulfonylamino]thiazole-4-carboxylic acid]
VIM-1; [1]
  Ki: 500 to 1000 nM
NDM-1; [3]
  Ki: 50 to 200 nM
IMP-1; [4]
  Ki: 1000 to 10000 nM

## N=C(NCC(=O)Nc1ccc(S(=O)(=O)Nc2scnc2C(=O)O)cc1F)N1CCOCC1 [Example 33, 5-[[3-fluoro-4-[[2-(morpholine-4-carboximidoylamino)acetyl]amino]phenyl]sulfonylamino]thiazole-4-carboxylic acid]
VIM-1; [1]
  Ki: 200 to 500 nM
NDM-1; [3]
  Ki: 200 to 2000 nM
IMP-1; [4]
  Ki: 1000 to 10000 nM

## N=C(N)CNC(=O)Cc1ccc(S(=O)(=O)Nc2scnc2C(=O)O)cc1F [Example 25, 5-[[4-[2-[(2-amino-2-imino-ethyl)amino]-2-oxo-ethyl]-3-fluoro-phenyl]sulfonylamino] thiazole-4-carboxylic acid]
VIM-1; [1]
  Ki: 200 to 500 nM
NDM-1; [3]
  Ki: 50 to 200 nM
IMP-1; [4]
  Ki: 500 to 1000 nM

## N=C1NCCN1CC(=O)Nc1ccc(S(=O)(=O)Nc2scnc2C(=O)O)cc1F [Example 38, 5-[[3-fluoro-4-[[2-(2-iminoimidazolidin-1-yl)acetyl]amino]phenyl]sulfonylamino]thiazole-4-carboxylic acid]
VIM-1; [1]
  Ki: 200 to 500 nM
NDM-1; [3]
  Ki: 200 to 2000 nM
IMP-1; [4]
  Ki: 1000 to 10000 nM

## N=C(N)NCC(=O)Nc1ccc(S(=O)(=O)Nc2scnc2C(=O)O)nn1 [Example 14, 5-[[6-[(2-guanidinoacetyl)amino]pyridazin-3-yl]sulfonylamino]thiazole-4-carboxylic acid]
VIM-1; [1]
  Ki: 200 to 500 nM
NDM-1; [3]
  Ki: 200 to 2000 nM
IMP-1; [4]
  Ki: 1000 to 10000 nM

## O=C(CNC1=NCCN1)Nc1c(F)cc(S(=O)(=O)Nc2scnc2C(=O)O)cc1F [Example 15, 5-[[4-[[2-(4,5-dihydro-1H-imidazol-2-ylamino)acetyl]amino]-3,5-difluoro-phenyl]sulfonylamino]thiazole-4-carboxylic acid]
VIM-1; [1]
  Ki: 500 to 1000 nM
NDM-1; [3]
  Ki: 50 to 200 nM
IMP-1; [4]
  Ki: 1000 to 10000 nM

## CNC(=N)NCC(=O)Nc1ccc(S(=O)(=O)Nc2scnc2C(=O)O)cc1F [Example 40, 5-[[3-fluoro-4-[[2-[(N-methylcarbamimidoyl)amino]acetyl]amino]phenyl]sulfonylamino]thiazole-4-carboxylic acid]
VIM-1; [1]
  Ki: 200 to 500 nM
NDM-1; [3]
  Ki: 200 to 2000 nM
IMP-1; [4]
  Ki: 1000 to 10000 nM

## CC(C(=N)N)C(=O)Nc1ccc(S(=O)(=O)Nc2scnc2C(=O)O)cc1F (stereo not drawn) [Example 37, 5-[[4-[(3-amino-3-imino-2-methyl-propanoyl)amino]-3-fluoro-phenyl]sulfonylamino]thiazole-4-carboxylic acid]
VIM-1; [1]
  Ki: < 200 nM
NDM-1; [3]
  Ki: 200 to 2000 nM
IMP-1; [4]
  Ki: 1000 to 10000 nM

## N=C(N)NCC(=O)Nc1ccc(S(=O)(=O)Nc2scnc2C(=O)O)cc1 [Example 20, 5-[[4-[(2-guanidinoacetyl)amino]phenyl]sulfonylamino]thiazole-4-carboxylic acid]
VIM-1; [5]
  Ki: 150 to 300 nM
VIM-1; [1]
  Ki: 200 to 500 nM
NDM-1; [7]
  Ki: 100 to 300 nM
NDM-1; [3]
  Ki: 50 to 200 nM

## CN(C)C(=N)CC(=O)Nc1ccc(S(=O)(=O)Nc2scnc2C(=O)O)cc1F [Example 12, 5-[[4-[[3-(dimethylamino)-3-imino-propanyl]amino]-3-fluoro-phenyl]sulfonylamino]thiazole-4-carboxylic acid]
VIM-1; [1]
  Ki: 200 to 500 nM
NDM-1; [3]
  Ki: 50 to 200 nM
IMP-1; [4]
  Ki: 500 to 1000 nM

## NNC(=O)Nc1ccc(S(=O)(=O)Nc2scnc2C(=O)O)cc1F [Comp. I, reference compound]
VIM-1; [5]
  Ki: 500 to 1000 nM
NDM-1; [7]
  Ki: 100 to 300 nM
IMP-1; [8]
  Ki: 600 to 5000 nM

## N=C(N)NOCC(=O)Nc1ccc(S(=O)(=O)Nc2scnc2C(=O)O)cc1F [Example 42, 5-[[3-fluoro-4-[(2-guanidinooxyacetyl)amino]phenyl]sulfonylamino]thiazole-4-carboxylic acid]
VIM-1; [1]
  Ki: 500 to 1000 nM
NDM-1; [3]
  Ki: 200 to 2000 nM
IMP-1; [4]
  Ki: 1000 to 10000 nM
